Results as given in patent publication US5362634A, “Process for producing A83543 compounds” (DowElanco, priority 1991, dated 1994).
Where two headings read alike, the source gives them in different places.

Tests used:
[1] = system: neonate CBW (cotton bollworm) larvae; assay: Percent control of neonate CBW larvae by A83543 components, topical pipet method; format: in vivo, Heliothis zea; conditions: topical, 24 h, read-out: Percent Control
Experimental: (§1) Each test compound was formulated by dissolving the compound in an acetone/alcohol (1:1) mixture containing 23 g of "Toximul R" (sulfonate/nonionic emulsifier blend) and 13 g of "Toximul S" (sulfonate/nonionic emulsifier blend) per liter. These mixtures were then diluted with water to give the indicated concentrations.
Additional insects were evaluated using similar formulations and evaluation procedures, with the exceptions noted.
After standard exposure periods, percent mortality was evaluated. The following abbreviations are used:
^1 Treatments with the same letter in parentheses are similar at the
^2 Topical pipet method with 20 larve/replicate and 4 replicates; one
day between treatment and observation.

[2] = system: SAW (Southern armyworm); assay: Greenhouse test against SAW; format: in vivo; conditions: Spodoptera eridania, squash
Experimental: as §1
Two-spotted spider mites (Tetranychus urticae Koch) and cotton or melon aphids (Aphis gossypii Glover) were introduced on squash cotyledons and allowed to establish on both leaf surfaces. Other plants in the same treatment pot were left uninfested. The leaves were then sprayed with 5 mL of test solution using a DeVilbiss atomizing sprayer at 10 psi. Both surfaces of the leaves were covered until runoff and then allowed to dry for one hour. Two uninfested leaves were then excised and placed into a Petri dish containing Southern armyworm (Spodoptera eridania Cramer).
After standard exposure periods, percent mortality was evaluated.

[3] = system: adult stable fly (ASF); assay: In vitro efficacy, exposure of ASF to chemically added serum samples; conditions: Stomoxys calcitrans, read-out: Percent insect mortality
Description: ^1 Percent insect mortality following 24 to 48 hrs. in vitro exposure
to chemically added serum samples

[4] = system: adult stable fly (ASF); assay: Guinea pig systemic test, adult stable fly; format: in vivo, Stomoxys calcitrans
Experimental: Adult guinea pigs are used in this test system. The compounds to be tested are dissolved in aqueous polyvinyl pyrrolidone or in polyethylene glycol 200, and an appropriate amount of the solution is administered either orally or by intraperitoneal injection.
(§2) Blood is drawn from the guinea pigs at 30 minutes except as noted, and the samples of blood are centrifuged. Dental wicks are saturated with the blood serum, and then exposed in Petri dishes to adult stable flies; blow fly larvae are exposed in test tubes. After 24 and 48 hours, the insects are examined, and the number of dead are counted. The results of the tests are recorded as the percent of the insects which are killed.

[5] = system: blow fly larvae (LBF); assay: Sheep systemic test, blow fly larvae; format: in vivo
Experimental: as §2
Tests are carried out in sheep using the test method described supra in the Guinea Pig Test description. Test compound is administered by intraperitoneal or intravenous injection or intraruminally; blood samples are drawn at 24 hours in these tests.

[6] = system: larval blow fly; assay: Insecticidal assay in blood of sheep challenged with Haemonchus contortus, larval blow fly; format: in vivo
Experimental: as §2
Tests are carried out in sheep using the test method described supra in the Guinea Pig Test description. […]
^b Amount (mg/kg) times number of doses administered
^c Times postadministration at which blood is drawn

## CC[C@H]1CCC[C@H](O[C@H]2CC[C@H](N(C)C)[C@@H](C)O2)[C@@H](C)C(=O)C2=C[C@@H]3[C@@H](C=C[C@@H]4C[C@@H](O[C@@H]5O[C@@H](C)[C@H](OC)[C@@H](OC)[C@H]5OC)C[C@@H]34)[C@@H]2CC(=O)O1 [A83543A]
[1]
  mortality at 0.5 ppm: 55%
  mortality at 1 ppm: 100%
  mortality at 5 ppm: 100%
  mortality at 10 ppm: 100%
[2]; 1.9 ppm
  inhibition at 1.9 ppm: 0%
[2]; 3.9 ppm
  inhibition at 3.9 ppm: 20%
[2]; 7.8 ppm
  inhibition at 7.8 ppm: 20%
[2]; 15.63 ppm
  inhibition at 15.63 ppm: 40%
[2]; 31.25 ppm
  inhibition at 31.25 ppm: 55%
[2]; 62.5 ppm
  inhibition at 62.5 ppm: 100%
[2]; 125 ppm
  inhibition at 125 ppm: 100%
[2]; 250 ppm
  inhibition at 250 ppm: 100%
[3]; 24 hr
  mortality at 0.312 ppm: 0%
  mortality at 0.625 ppm: 0%
  mortality at 1.25 ppm: 20%
  mortality at 2.5 ppm: 30%
  mortality at 5 ppm: 50%
  mortality at 10 ppm: 80%
[3]; 48 hr
  mortality at 0.312 ppm: 50%
  mortality at 0.625 ppm: 70%
  mortality at 1.25 ppm: 100%
  mortality at 2.5 ppm: 100%
  mortality at 5 ppm: 100%
  mortality at 10 ppm: 100%
[4]; 10 mg/kg IP, bled 30 min
  % Activity ASF: 0%
[4]; 10 mg/kg IP, bled 5 hr
  % Activity ASF: 0%
[4]; 10 mg/kg IP, bled 24 hr
  % Activity ASF: 0%
[4]; 20 mg/kg IP, bled 30 min
  % Activity ASF: 0%
[4]; 20 mg/kg IP, bled 5 hr
  % Activity ASF: 0%
[4]; 20 mg/kg IP, bled 24 hr
  % Activity ASF: 0%
[4]; 30 mg/kg IP, bled 30 min
  % Activity ASF: 50%
[4]; 30 mg/kg IP, bled 5 hr
  % Activity ASF: 0%
[4]; 30 mg/kg IP, bled 24 hr
  % Activity ASF: 0%
[4]; 50 mg/kg IP, bled 30 min
  % Activity ASF: 100%
[4]; 50 mg/kg IP, bled 5 hr
  % Activity ASF: 40%
[4]; 50 mg/kg IP, bled 24 hr
  % Activity ASF: 30%
[4]; 50 mg/kg oral, bled 5 hr
  % Activity ASF: 60%
[4]; 50 mg/kg oral, bled 24 hr
  % Activity ASF: 0%
[4]; Stomoxys calcitrans, in Cavia porcellus, 10 mg/kg IP
  mortality at 10 mg/kg: 0%
[4]; Stomoxys calcitrans, in Cavia porcellus, 20 mg/kg IP
  mortality at 20 mg/kg: 0%
[4]; Stomoxys calcitrans, in Cavia porcellus, 30 mg/kg IP
  mortality at 30 mg/kg: 50%
[4]; Stomoxys calcitrans, in Cavia porcellus, 50 mg/kg IP
  mortality at 50 mg/kg: 100%
[4]; Stomoxys calcitrans, in Cavia porcellus, 50 mg/kg OR (oral), 5-hr blood sample
  mortality at 50 mg/kg: 60%
[5]; 1.0 mg/kg IV
  LBF activity (% mortality): 25%
[5]; 10 mg/kg IP, 1440 min
  LBF activity (% mortality): 0%
[5]; 10 mg/kg IR, 1440 min
  LBF activity (% mortality): 0%
[5]; 30 mg/kg IP, 1440 min
  LBF activity (% mortality): 80%
[5]; 30 mg/kg IR, 1440 min
  LBF activity (% mortality): 100%
[5]; 50 mg/kg IP, 1440 min
  LBF activity (% mortality): 20%
[5]; 50 mg/kg IR, 1440 min
  LBF activity (% mortality): 100%
[5]; 2 × 25 mg/kg IR, 1440 min
  LBF activity (% mortality): 100%
[6]; 1 × 1 mg/kg IV, 35 min, L, 24-hour exposure
  Percent Insecticide Mortality: 25%
[6]; 1 × 1 mg/kg IV, 35 min, L, 48-hour exposure
  Percent Insecticide Mortality: 25%
[6]; 1 × 1 mg/kg IV, 5 hr, L, 24-hour exposure
  Percent Insecticide Mortality: 10%
[6]; 1 × 1 mg/kg IV, 5 hr, L, 48-hour exposure
  Percent Insecticide Mortality: 10%
[6]; 1 × 1 mg/kg IV, Day 0, L, 24-hour exposure
  Percent Insecticide Mortality: 0%
[6]; 1 × 1 mg/kg IV, Day 0, L, 48-hour exposure
  Percent Insecticide Mortality: 0%
[6]; 1 × 1 mg/kg IV, Day 1, L, 24-hour exposure
  Percent Insecticide Mortality: 0%
[6]; 1 × 1 mg/kg IV, Day 1, L, 48-hour exposure
  Percent Insecticide Mortality: 0%
[6]; 1 × 1 mg/kg IV, Day 2, L, 24-hour exposure
  Percent Insecticide Mortality: 0%
[6]; 1 × 1 mg/kg IV, Day 2, L, 48-hour exposure
  Percent Insecticide Mortality: 0%
[6]; 1 × 1 mg/kg IV, Day 3, L, 24-hour exposure
  Percent Insecticide Mortality: 0%
[6]; 1 × 1 mg/kg IV, Day 3, L, 48-hour exposure
  Percent Insecticide Mortality: 0%
[6]; 1 × 1 mg/kg IV, Day 4, L, 24-hour exposure
  Percent Insecticide Mortality: 0%
[6]; 1 × 1 mg/kg IV, Day 4, L, 48-hour exposure
  Percent Insecticide Mortality: 0%
[6]; 1 × 1 mg/kg IV, Day 5, L, 24-hour exposure
  Percent Insecticide Mortality: 0%
[6]; 1 × 1 mg/kg IV, Day 5, L, 48-hour exposure
  Percent Insecticide Mortality: 0%
[6]; 25 × 2 mg/kg IR, 35 min, L, 24-hour exposure
  Percent Insecticide Mortality: 0%
[6]; 25 × 2 mg/kg IR, 35 min, L, 48-hour exposure
  Percent Insecticide Mortality: 0%
[6]; 25 × 2 mg/kg IR, 5 hr, L, 24-hour exposure
  Percent Insecticide Mortality: 25%
[6]; 25 × 2 mg/kg IR, 5 hr, L, 48-hour exposure
  Percent Insecticide Mortality: 50%
[6]; 25 × 2 mg/kg IR, Day 0, L, 24-hour exposure, 0 min
  Percent Insecticide Mortality: 0%
[6]; 25 × 2 mg/kg IR, Day 0, L, 48-hour exposure
  Percent Insecticide Mortality: 0%
[6]; 25 × 2 mg/kg IR, Day 1, L, 24-hour exposure
  Percent Insecticide Mortality: 100%
[6]; 25 × 2 mg/kg IR, Day 1, L, 48-hour exposure
  Percent Insecticide Mortality: 100%
[6]; 25 × 2 mg/kg IR, Day 2, L, 24-hour exposure
  Percent Insecticide Mortality: 90%
[6]; 25 × 2 mg/kg IR, Day 2, L, 48-hour exposure
  Percent Insecticide Mortality: 100%
[6]; 25 × 2 mg/kg IR, Day 3, L, 24-hour exposure
  Percent Insecticide Mortality: 90%
[6]; 25 × 2 mg/kg IR, Day 3, L, 48-hour exposure
  Percent Insecticide Mortality: 100%
[6]; 25 × 2 mg/kg IR, Day 4, L, 24-hour exposure
  Percent Insecticide Mortality: 60%
[6]; 25 × 2 mg/kg IR, Day 4, L, 48-hour exposure
  Percent Insecticide Mortality: 90%
[6]; 25 × 2 mg/kg IR, Day 5, L, 24-hour exposure
  Percent Insecticide Mortality: 50%
[6]; 25 × 2 mg/kg IR, Day 5, L, 48-hour exposure
  Percent Insecticide Mortality: 75%
[6]; 50 × 1 mg/kg IP, 35 min, L, 24-hour exposure
  Percent Insecticide Mortality: 0%
[6]; 50 × 1 mg/kg IP, 35 min, L, 48-hour exposure
  Percent Insecticide Mortality: 10%
[6]; 50 × 1 mg/kg IP, 5 hr, L, 24-hour exposure
  Percent Insecticide Mortality: 10%
[6]; 50 × 1 mg/kg IP, 5 hr, L, 48-hour exposure
  Percent Insecticide Mortality: 10%
[6]; 50 × 1 mg/kg IP, Day 0, L, 24-hour exposure, 0 min
  Percent Insecticide Mortality: 0%
[6]; 50 × 1 mg/kg IP, Day 0, L, 48-hour exposure
  Percent Insecticide Mortality: 0%
[6]; 50 × 1 mg/kg IP, Day 1, L, 24-hour exposure
  Percent Insecticide Mortality: 10%
[6]; 50 × 1 mg/kg IP, Day 1, L, 48-hour exposure
  Percent Insecticide Mortality: 10%
[6]; 50 × 1 mg/kg IP, Day 2, L, 24-hour exposure, 2880 min
  Percent Insecticide Mortality: 20%
[6]; 50 × 1 mg/kg IP, Day 2, L, 48-hour exposure
  Percent Insecticide Mortality: 20%
[6]; 50 × 1 mg/kg IP, Day 3, L, 24-hour exposure, 4320 min
  Percent Insecticide Mortality: 20%
[6]; 50 × 1 mg/kg IP, Day 3, L, 48-hour exposure
  Percent Insecticide Mortality: 20%
[6]; 50 × 1 mg/kg IP, Day 4, L, 24-hour exposure, 5760 min
  Percent Insecticide Mortality: 10%
[6]; 50 × 1 mg/kg IP, Day 4, L, 48-hour exposure
  Percent Insecticide Mortality: 20%
[6]; 50 × 1 mg/kg IP, Day 5, L, 24-hour exposure, 7200 min
  Percent Insecticide Mortality: 10%
[6]; 50 × 1 mg/kg IP, Day 5, L, 48-hour exposure
  Percent Insecticide Mortality: 25%
[6]; 50 × 1 mg/kg IR, 35 min, L, 24-hour exposure
  Percent Insecticide Mortality: 0%
[6]; 50 × 1 mg/kg IR, 35 min, L, 48-hour exposure
  Percent Insecticide Mortality: 0%
[6]; 50 × 1 mg/kg IR, 5 hr, L, 24-hour exposure
  Percent Insecticide Mortality: 40%
[6]; 50 × 1 mg/kg IR, 5 hr, L, 48-hour exposure
  Percent Insecticide Mortality: 75%
[6]; 50 × 1 mg/kg IR, Day 0, L, 24-hour exposure, 0 min
  Percent Insecticide Mortality: 0%
[6]; 50 × 1 mg/kg IR, Day 0, L, 48-hour exposure
  Percent Insecticide Mortality: 0%
[6]; 50 × 1 mg/kg IR, Day 1, L, 24-hour exposure
  Percent Insecticide Mortality: 90%
[6]; 50 × 1 mg/kg IR, Day 1, L, 48-hour exposure
  Percent Insecticide Mortality: 100%
[6]; 50 × 1 mg/kg IR, Day 2, L, 24-hour exposure, 2880 min
  Percent Insecticide Mortality: 90%
[6]; 50 × 1 mg/kg IR, Day 2, L, 48-hour exposure
  Percent Insecticide Mortality: 100%
[6]; 50 × 1 mg/kg IR, Day 3, L, 24-hour exposure, 4320 min
  Percent Insecticide Mortality: 80%
[6]; 50 × 1 mg/kg IR, Day 3, L, 48-hour exposure
  Percent Insecticide Mortality: 100%
[6]; 50 × 1 mg/kg IR, Day 4, L, 24-hour exposure, 5760 min
  Percent Insecticide Mortality: 40%
[6]; 50 × 1 mg/kg IR, Day 4, L, 48-hour exposure
  Percent Insecticide Mortality: 40%
[6]; 50 × 1 mg/kg IR, Day 5, L, 24-hour exposure, 7200 min
  Percent Insecticide Mortality: 20%
[6]; 50 × 1 mg/kg IR, Day 5, L, 48-hour exposure
  Percent Insecticide Mortality: 25%
